Experimental data reported in patent publication US9453034B2, “C2-azaspiro iminothiazine dioxides as BACE inhibitors, compositions, and their use” (Merck Sharp & Dohme Corp., priority 2013, dated 2016).

How the values were obtained:
[1] = molecular target: soluble human BACE1 catalytic domain (Homo sapiens (Human), UniProt P56817); test: BACE1 HTRF FRET Assay; type: biochemical; details: Ki calculated from IC50 using the Cheng-Prusoff equation; QSY7-APPswe-Eu substrate, pH 5.0
Text: Reagents: Na^+-Acetate pH 5.0; 1% Brij-35; Glycerol; Dimethyl Sulfoxide (DMSO);
A homogeneous time-resolved FRET assay can be used to determine IC50 values for inhibitors of the soluble human BACE1 catalytic domain. This assay monitors the increase of 620 nm fluorescence that resulted from BACE1 cleavage of an APPswedish APP^swe mutant peptide FRET substrate (QSY7-[…]-Europium-amide). This substrate contains an N-terminal QSY7 moiety that serves as a quencher of the C-terminal Europium fluorophore (620 nm Em). […] Inhibition of BACE1 cleavage of the QSY7-APP^swe-Eu substrate by inhibitors is manifested as a suppression of 620 nm fluorescence.
Reactions are initiated by addition of 10 μl of 600 nM QSY7-APP^swe-Eu substrate (200 nM final) to give a final reaction volume of 30 μl in a 384 well Nunc HTRF plate. The reactions are incubated at 30° C. for 1.5 hours. The 620 nm fluorescence is then read on a Rubystar HTRF plate reader (BMG Labtechnologies) using a 50 millisecond delay followed by a 400 millisecond acquisition time window. Inhibitor IC50 values are derived from non-linear regression analysis of concentration response curves.

[2] = molecular target: purified human autoBACE-2 (Homo sapiens (Human), UniProt Q9Y5Z0); test: BACE-2 Assay (BACE-HTRF assay); type: biochemical; details: Ki calculated from IC50 using the Cheng-Prusoff equation; QSY7-EISEVNLDAEFC-Eu-amide substrate, pH 5.0; read-out: BACE2 Ki
Method: Inhibitor IC50s at purified human autoBACE-2 are determined in a time-resolved endpoint proteolysis assay that measures hydrolysis of the QSY7-EISEVNLDAEFC-Eu-amide FRET peptide substrate (BACE-HTRF assay). BACE-mediated hydrolysis of this peptide results in an increase in relative fluorescence (RFU) at 620 nm after excitation with 320 nm light. Inhibitor compounds, prepared at 3× the desired final concentration in 1×BACE assay buffer (20 mM sodium acetate pH 5.0, 10% glycerol, 0.1% Brij-35) supplemented with 7.5% DMSO are pre-incubated with an equal volume of autoBACE-2 enzyme diluted in 1×BACE assay buffer (final enzyme concentration 1 nM) in black 384-well NUNC plates for 30 minutes at 30° C. The assay is initiated by addition of an equal volume of the QSY7-EISEVNLDAEFC-Eu-amide substrate (200 nM final concentration, Km=8 μM […] for autoBACE-2) prepared in 1×BACE assay buffer supplemented with 7.5% DMSO and incubated for 90 minutes at 30° C. DMSO is present at 5% final concentration in the assay. Following laser excitation of sample wells at 320 nm, the fluorescence signal at 620 nm is collected for 400 ms following a 50 μs delay on a RUBYstar HTRF plate reader (BMG Labtechnologies). Raw RFU data is normalized to maximum (1.0 nM BACE/DMSO) and minimum (no enzyme/DMSO) RFU values. IC50s are determined by nonlinear regression analysis (sigmoidal dose response, variable slope) of percent inhibition data with minimum and maximum values set to 0 and 100 percent respectively. Similar IC50s are obtained when using raw RFU data. The Ki values are calculated from the IC50 using the Cheng-Prusoff equation.

soluble human BACE1 catalytic domain, sequence (P56817 75-416): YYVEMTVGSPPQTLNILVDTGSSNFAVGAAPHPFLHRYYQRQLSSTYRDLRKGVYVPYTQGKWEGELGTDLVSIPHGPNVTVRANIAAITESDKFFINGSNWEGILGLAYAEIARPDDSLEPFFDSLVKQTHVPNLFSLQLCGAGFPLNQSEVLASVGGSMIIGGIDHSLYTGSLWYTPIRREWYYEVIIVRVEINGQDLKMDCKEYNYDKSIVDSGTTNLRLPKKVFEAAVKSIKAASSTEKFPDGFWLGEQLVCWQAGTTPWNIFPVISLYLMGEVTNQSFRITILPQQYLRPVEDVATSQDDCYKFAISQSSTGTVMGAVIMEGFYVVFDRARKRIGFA
purified human autoBACE-2, sequence (Q9Y5Z0 63-473): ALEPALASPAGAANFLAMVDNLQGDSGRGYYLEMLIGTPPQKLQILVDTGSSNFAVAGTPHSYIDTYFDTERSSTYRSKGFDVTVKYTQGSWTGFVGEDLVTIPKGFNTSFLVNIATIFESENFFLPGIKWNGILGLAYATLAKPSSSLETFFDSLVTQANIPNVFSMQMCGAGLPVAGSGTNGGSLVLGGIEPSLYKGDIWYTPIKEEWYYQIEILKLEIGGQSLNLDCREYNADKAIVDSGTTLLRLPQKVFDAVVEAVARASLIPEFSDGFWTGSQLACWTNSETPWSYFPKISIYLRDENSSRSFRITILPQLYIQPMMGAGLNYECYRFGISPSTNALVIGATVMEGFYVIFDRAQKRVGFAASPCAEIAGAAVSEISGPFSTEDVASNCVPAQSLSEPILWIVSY

Ki [1]	Ki [2]	SMILES
19 nM	29 nM	COc1cnc(C(=O)Nc2ccc(F)c([C@]3(C)CS(=O)(=O)C4(CCN(C)CC4)C(=N)N3)c2)cn1 [Example 28, N-{4-fluoro-3-[(3R)-5-imino-3,9-dimethyl-1,1-dioxido-1-thia-4,9-diazaspiro[5.5]undec-3-yl]phenyl}-5-methoxypyrazine-2-carboxamide]
37 nM	6.4 nM	CN1CCC2(CC1)C(=N)N[C@](C)(c1cc(NC(=O)c3ccc(F)cn3)ccc1F)CS2(=O)=O [Example 26, 5-fluoro-N-{4-fluoro-3-[(3R)-5-imino-3,9-dimethyl-1,1-dioxido-1-thia-4,9-diazaspiro[5.5]undec-3-yl]phenyl}pyridine-2-carboxamide]
548 nM	56 nM	COCC(=O)Nc1ccc(F)c([C@]2(C)CS(=O)(=O)C3(CCN(C)CC3)C(=N)N2)c1 [Example 36b, N-{4-fluoro-3-[(3R)-5-imino-3,9-dimethyl-1,1-dioxido-1-thia-4,9-diazaspiro[5.5]undec-3-yl]phenyl}-2-methoxyacetamide]
3.3 nM	10.3 nM	CN1CC2(C1)C(=N)N[C@](C)(c1cc(NC(=O)c3ccc(OC(F)(F)F)cn3)ccc1F)CS2(=O)=O [Example 6, N-{4-fluoro-3-[(7R)-9-imino-2,7-dimethyl-5,5-dioxido-5-thia-2,8-diazaspiro[3.5]non-7-yl]phenyl}-5-(trifluoromethoxy) pyridine-2-carboxamide]
2.3 nM	30 nM	CC#CCOc1ccc(C(=O)Nc2ccc(F)c([C@]3(C)CS(=O)(=O)C4(CCN(C)CC4)C(=N)N3)c2)nc1 [Example 36, 5-(but-2-yn-1-yloxy)-N-{4-fluoro-3-[(3R)-5-imino-3,9-dimethyl-1,1-dioxido-1-thia-4,9-diazaspiro[5.5]undec-3-yl]phenyl}pyridine-2-carboxamide]
2.3 nM	30 nM	CC#CCOc1ccc(C(=O)Nc2ccc(F)c([C@]3(C)CS(=O)(=O)C4(CN(C)C4)C(=N)N3)c2)nc1 [Example 12, 5-(but-2-yn-1-yloxy)-N-{4-fluoro-3-[(7R)-9-imino-2,7-dimethyl-5,5-dioxido-5-thia-2,8-diazaspiro[3.5]non-7-yl]phenyl}pyridine-2-carboxamide]
1.4 nM	0.5 nM	CN1CC2(C1)C(=N)N[C@](C)(c1cc(NC(=O)c3ncc(C#N)cc3C(F)F)ccc1F)CS2(=O)=O [Example 12b, 5-cyano-3-(difluoromethyl)-N-{4-fluoro-3-[(7R)-9-imino-2,7-dimethyl-5,5-dioxido-5-thia-2,8-diazaspiro [3.5]non-7-yl]phenyl}pyridine-2-carboxamide]
37 nM	23 nM	COc1cnc(C(=O)Nc2ccc(F)c([C@]3(C)CS(=O)(=O)C4(CCN(C)CC4)C(=N)N3)c2)c(C)n1 [Example 34, N-{4-fluoro-3-[(3R)-5-imino-3,9-dimethyl-1,1-dioxido-1-thia-4,9-diazaspiro[5.5]undec-3-yl]phenyl}-5-methoxy-3-methylpyrazine-2-carboxamide]
1.4 nM	0.32 nM	COc1ccc(C(=O)Nc2ccc(F)c([C@]3(C)CS(=O)(=O)C4(CN(c5ccc([N+](=O)[O-])cc5)C4)C(=N)N3)c2)nc1 [Example 42, (R)—N-(4-fluoro-3-(9-imino-7-methyl-2-(4-nitrophenyl)-5,5-dioxido-5-thia-2,8-diazaspiro[3.5]nonan-7-yl)phenyl)-5-methoxypicolinamide]
7.9 nM	6.2 nM	COc1cnc(C(=O)Nc2ccc(F)c([C@]3(C)CS(=O)(=O)C4(CN(C)C4)C(=N)N3)c2)cn1 [Example 4, N-{4-fluoro-3-[(7R)-9-imino-2,7-dimethyl-5,5-dioxido-5-thia-2,8-diazaspiro[3.5]non-7-yl]phenyl}-5-methoxypyrazine-2-carboxamide]
7.3 nM	1.7 nM	CNC(=O)N1CC2(C1)C(=N)N[C@](C)(c1cc(NC(=O)c3ccc(OC)cn3)ccc1F)CS2(=O)=O [Example 39, (R)-7-(2-fluoro-5-(5-methoxypicolinamido)phenyl)-9-imino-N,7-dimethyl-5-thia-2,8-diazaspiro[3.5]nonane-2-carboxamide 5,5-dioxide]
22 nM	16 nM	COc1ccc(C(=O)Nc2ccc(F)c([C@]3(C)CS(=O)(=O)C4(CNC4)C(=N)N3)c2)nc1 [Example 36d, (R)—N-(4-fluoro-3-(9-imino-7-methyl-5,5-dioxido-5-thia-2,8-diazaspiro[3.5]nonan-7-yl)phenyl)-5-methoxypicolinamide]
2.2 nM	0.4 nM	CN1CC2(C1)C(=N)N[C@](C)(c1cc(NC(=O)c3ccc(Cl)cn3)ccc1F)CS2(=O)=O [Example 5, 5-chloro-N-{4-fluoro-3-[(7R)-9-imino-2,7-dimethyl-5,5-dioxido-5-thia-2,8-diazaspiro [3.5]non-7-yl]phenyl}pyridine-2-carboxamide]
1.6 nM	1.1 nM	COc1ccc(C(=O)Nc2ccc(F)c([C@]3(C)CS(=O)(=O)C4(CN(C(C)=O)C4)C(=N)N3)c2)nc1 [Example 37, (R)—N-(3-(2-acetyl-9-imino-7-methyl-5,5-dioxido-5-thia-2,8-diazaspiro[3.5]nonan-7-yl)-4-fluorophenyl)-5-methoxypicolinamide]
7.7 nM	0.6 nM	COc1ccc(C(=O)Nc2ccc(F)c([C@]3(C)CS(=O)(=O)C4(CN(Cc5ccccc5)C4)C(=N)N3)c2)nc1 [Example 40, (R)—N-(3-(2-benzyl-9-imino-7-methyl-5,5-dioxido-5-thia-2,8-diazaspiro[3.5]nonan-7-yl)-4-fluorophenyl)-5-methoxypicolinamide]
4.9 nM	1.5 nM	CN1CC2(C1)C(=N)N[C@](C)(c1cc(NC(=O)c3ccc(OCF)cn3)ccc1F)CS2(=O)=O [Example 8, N-{4-fluoro-3-[(7R)-9-imino-2,7-dimethyl-5,5-dioxido-5-thia-2,8-diazaspiro[3.5]non-7-yl]phenyl}-5-(fluoromethoxy) pyridine-2-carboxamide]
35 nM	24 nM	Cc1cc(C#N)cnc1C(=O)Nc1ccc(F)c([C@]2(C)CS(=O)(=O)C3(CCN(C)CC3)C(=N)N2)c1 [Example 35, 5-cyano-N-{4-fluoro-3-[(3R)-5-imino-3,9-dimethyl-1,1-dioxido-1-thia-4,9-diazaspiro[5.5]undec-3-yl]phenyl}-3-methylpyridine-2-carboxamide]
10.4 nM	4.9 nM	COc1cnc(C(=O)Nc2ccc(F)c([C@]3(C)CS(=O)(=O)C4(CN(C)C4)C(=N)N3)c2)c(C)n1 [Example 10, N-{4-fluoro-3-[(7R)-9-imino-2,7-dimethyl-5,5-dioxido-5-thia-2,8-diazaspiro[3.5]non-7-yl]phenyl}-5-methoxy-3-methylpyrazine-2-carboxamide]
6.1 nM	1.2 nM	CN1CC2(C1)C(=N)N[C@](C)(c1cc(NC(=O)c3ccc(F)cn3)ccc1F)CS2(=O)=O [Example 2, 5-fluoro-N-{4-fluoro-3-[(7R)-9-imino-2,7-dimethyl-5,5-dioxido-5-thia-2,8-diazaspiro[3.5]non-7-yl]phenyl}pyridine-2-carboxamide]

SMILES	Ki [1]	Ki [2]
COc1cnc(C(=O)Nc2ccc(F)c([C@]3(C)CS(=O)(=O)C4(CN(C)C4)C(=N)N3)c2)c(C)c1 [Example 9, N-{4-fluoro-3-[(7R)-9-imino-2,7-dimethyl-5,5-dioxido-5-thia-2,8-diazaspiro[3.5]non-7-yl]phenyl}-5-methoxy-3-methylpyridine-2-carboxamide]	6.3 nM	0.9 nM
COc1ccc(C(=O)Nc2ccc(F)c([C@]3(C)CS(=O)(=O)C4(CN(C)C4)C(=N)N3)c2)nc1 [Example 3, N-{4-fluoro-3-[(7R)-9-imino-2,7-dimethyl-5,5-dioxido-5-thia-2,8-diazaspiro[3.5]non-7-yl]phenyl}-5-methoxypyridine-2-carboxamide]	6.3 nM	1.6 nM
